Measured values taken from patent US20070292403A1, “Methods of treating a neurological disorder with creatine monohydrate” (priority 2006, published 2007).

Assays:
Format in all cases: in vivo, human
[1] = Example 1: serum creatine levels and brain creatine by magnetic resonance spectroscopy; details: for Increase in absolute creatine concentration by MRS: by week 16, 8 g/day, p<0.05, returned to baseline at week 24
Description: (§1) Study protocol. Subjects were screened within 25 days of randomization (baseline visit). Screening included assessment of eligibility criteria, medical history, physical examination, Unified Huntington's Disease Rating Scale (UHDRS), EKG, DNA analysis, complete blood count, chemistry panel, and urinalysis. Subjects were on study drug (creatine or placebo) for 16 weeks, followed by an 8-week washout. Study visits occurred at baseline, weeks 8, 16, and 24 with telephone contacts at weeks 1, 10 and 20. Physical examination was done at screening and week 16. UHDRS scores, vital signs, adverse event assessment, and safety laboratory tests were repeated at all visits. Blood was collected for serum creatine levels and serum 8-hydroxy-2′-deoxyguanosine (8OH2′dG), a measure of oxidative injury affecting DNA. The later was analyzed in the samples from two sites. Magnetic resonance spectroscopy (MRS; STEAM; TR/TE=6000/20 milliseconds) of frontal cortex (voxel size=56 cc) and occipital cortex (voxel size=18 cc) performed at one site was analyzed for this report. Subject compliance was assessed by wafer counts.

[2] = system: serum 8-hydroxy-2′-deoxyguanosine (8OH2′dG); experiment: Example 1: serum 8OH2'dG biomarker of oxidative injury to DNA; details: baseline to 16 weeks, 8 g/day; SD=13.93; placebo increase 5.87; p<0.0042
Description: as §1

serum 8OH2′dG = experiment: Example 3: serum 8OH2'dG suppression in dose escalation
Protocol: A two-phase open-label study was conducted to better determine an optimal dose of creatine symptomatic subjects with Huntington's disease. A dose-escalation study (10-40 grams per day) was conducted to determine the maximally tolerated dose (MTD) followed by a de-escalation phase to assess whether brain and serum levels of creatine might be maximal at doses lower than the MTD. Ten subjects were enrolled and followed prospectively for two weeks at each done level increasing in 5-gram increments during dose escalation that lasted 13 weeks. Assessments at each visit included UHDRS, EKG, vital signs, clinical safety and research labs. MRI spectroscopy was conducted prior to baseline at peak done (40 grams) and one month after de-escalation to either 30 or 15 grams daily. To determine an optimal dose, pharmacokinetic as well as clinical data were considered. Once the maximal dose was reached, subjects were assigned one of two lower doses previously taking (15 grams a day (n=5) or 30 grams a day (n=5)). Serum creatine was assessed at baseline, at the end of each 2-week dose escalation step and at the end of the de-escalation phase to assess the correspondence between serum and brain levels of creatine at steady state.

[3] = system: subjects with early Parkinson's disease (PD); experiment: Example 2: randomized double-blind futility trial, change in total UPDRS
Protocol: Study Design and Randomization. This example was a single arm futility study designed to assess creatine and minocycline. A placebo arm for calibration was included in the example. Eligible subjects were randomly assigned in a 1:1:1 fashion to receive 1) 10 g/day of creatine monohydrate and placebo minocycline, 2) placebo creatine monohydrate and 200 mg/day of minocycline, or 3) placebo creatine monohydrate and placebo minocycline. The primary futility analysis was at 12 months of follow-up, but each subject was followed for 18 months for additional safety information. Subjects and investigators were kept blinded to treatment group.
Participants. […] Two of the three cardinal manifestations of PD (tremor, rigidity, and bradykinesia) were required; these findings had to be asymmetric. The diagnosis of PD must have been made within 5 years of randomization. Women of childbearing potential were required to use adequate birth control and have a negative pregnancy test at baseline. Subjects were excluded if they had any secondary causes of parkinsonism, such as drug induced parkinsonism or structural lesions; had atypical parkinsonian syndromes; gait freezing or impairment in postural reflexes; had prior stereotaxis surgery for PD; used creatine, minocycline, or any investigational agent within 90 days prior to randomization; had known hypersensitivity to creatine or minocycline; used CoQ10 in doses greater than 300 mg 90 days prior to randomization; or had any clinically significant medical condition that could interfere with the subject's ability to safely participate in the study or be followed.
Dosages. Creatine was administered as 5 g sachets mixed with 8 ounces of liquid taken twice a day and minocycline was administered as 100 mg capsules taken twice a day. Both were taken with meals.
Outcome measures. […] Disability was assessed by the sight investigator, based on impairment in ambulation, activities in daily living, and occupational status. […] Both the site investigator and medical monitors assessed the potential relationship between SAEs and study drug. […]

CN(CC(=O)O)C(=N)N [Creatine, creatine monohydrate]
Increase in absolute creatine concentration by MRS ([1]; frontal cortex): 7.5% | concentration at 16 weeks ([1]; human, serum, oral, 8 g/day, week 16, baseline 46.4 (SD=35.7), SD=259.9, read-out: Average serum creatine level): 382 µM | concentration at 24 weeks ([1]; human, serum, oral, at washout after 8 g/day for 16 weeks, SD=29.5, read-out: Average serum creatine level): 51.8 µM | Increase in absolute creatine concentration by MRS ([1]; occipital cortex): 13% | Average reduction of serum 8OH2′dG [2]: 9.11 pg/mL | Doses associated with maximum suppression of serum 8OH2′dG, levels similar to normal controls (serum 8OH2′dG): greater than 25 grams daily | Serum 8OH2′dG (serum 8OH2′dG; greater than seen with 8 grams per day): dose dependent suppression | Mean (SD) change in total UPDRS ([3]; baseline to 12 months or time symptomatic therapy needed, creatine 10 g/day, minocycline 200 mg/day, worst change score imputed): 5.6 (8.69) | Futility analysis outcome ([3]; threshold 7.46 (30% less than 10.65 DATATOP historical progression)): could not be rejected as futile
